Test results as given in PMC13128454, “Mutant p53 protein accumulation is selectively targetable by proximity-inducing drugs” (Nature Chemical Biology, 2025).
pEC50, pIC50: −log10 of the molar value. Several values for one entry are separate records, joined by “and”; a condition that tells them apart may be missing. Equal values may be shown once.

What was measured:
Assay type in all cases: cell-based
[1] = target: T1, p53-Y220C–PLK1 ternary complex (Homo sapiens, UniProt P04637+P53350, M133L/N239Y/N268D/V203A/Y220C); assay: NanoBiT ternary complex assay in cotransfected 293T cells; conditions: for NLuc Signal, Average: 0 nM: 323
T1 construct: NLS–LgBiT–p53-Y220C (DBD) and mEGFP–PLK1–SmBiT; expressed in transfected cells; host or cells: 293T cells, transient cotransfection
Text: After 1 day, the cells were passaged into 384-well plates and treated with varying concentrations of compound.

[2] = tested on: PLK1 and p53-Y220C localization in cotransfected 293T cells; assay: colocalization assay, live-cell imaging; conditions: nonmitotic cells
Experimental: The 293T cells were seeded in six-well plates and cotransfected with Halo–p53-Y220C ΔTAD–mCherry and mEGFP–PLK1–SmBiT (1:1). After 1 day, the cells were passaged into 96-well plates in FluoroBrite DMEM for microscopy. The cells were imaged with the Opera Phenix Plus high-content screening system (PerkinElmer) before compound treatment and as a time series following compound treatment.

LNCaP cells = assay: CellTiter-Glo cell viability; conditions: for mean_norm (normalized viability): LNCAP, 4 day
Experimental: (§1) Cells were plated in 384-well plates (typically 1,500 cells per well) with varying concentrations of compounds, with a total volume of 50 μl per well. CTG reagent was added (25 μl) to the solutions, mixed and read out using an EnVision 2105 multimode plate reader.

MCF7 cells = assay: CellTiter-Glo cell viability
Experimental: as §1

Huh7 cells = assay: CellTiter-Glo cell viability
Experimental: as §1

MFE296 cells = assay: CellTiter-Glo cell viability
Experimental: as §1

DU145 cells = assay: CellTiter-Glo cell viability
Experimental: as §1

HepG2 cells = assay: CellTiter-Glo cell viability
Experimental: as §1

[3] = Homo sapiens, 96 h, 4 day treatment

SMILES: CC[C@@H]1C(=O)N(C)c2cnc(Nc3ccc(C(=O)NCCOCCOCCOCCOCCC(=O)N4CCC(Nc5cccc6c5cc(C#CCNc5ccc(S(C)(=O)=O)cc5OC)n6CC(F)(F)F)CC4)cc3OC)nc2N1C1CCCC1 [p53-01, PMV6-PEG4-BI2536]
- NLuc Signal (replicate) ([1]; Concentration 1250 nM, 1 day): 704 and 792 and 644 and 588
- NLuc Signal, Average ([1]; Concentration 1250 nM, 1 day): 660
- NLuc Signal (replicate) ([1]; Concentration 2500 nM, 1 day): 988 and 1108 and 1092 and 1436 and 1288
- NLuc Signal, Average ([1]; Concentration 2500 nM, 1 day): 1167.33
- NLuc Signal (replicate) ([1]; Concentration 5000 nM, 1 day): 1240 and 1080 and 1140 and 1304 and 1104 and 1468
- NLuc Signal, Average ([1]; Concentration 5000 nM, 1 day): 1222.67
- NLuc Signal (replicate) ([1]; Concentration 10000 nM, 1 day): 1052 and 1356 and 1056 and 1192 and 1180 and 1372
- NLuc Signal, Average ([1]; Concentration 10000 nM, 1 day): 1201.33
- NanoBiT mean_norm ([1]; Concentration 19.5312): 1.047
- NanoBiT mean_norm ([1]; Concentration 39.0625): 1.0545
- NanoBiT mean_norm ([1]; Concentration 78.125): 1.0649
- NanoBiT mean_norm ([1]; Concentration 156.25): 1.0584
- NanoBiT mean_norm ([1]; Concentration 312.5): 1.026
- NanoBiT mean_norm ([1]; Concentration 625): 1.182
- NanoBiT mean_norm ([1]; Concentration 1250): 1.238
- NanoBiT mean_norm ([1]; Concentration 2500): 1.362
- NanoBiT mean_norm ([1]; Concentration 5000): 1.592
- NanoBiT mean_norm ([1]; Concentration 10000): 1.5997
- ternary complex formation between p53-Y220C and PLK1 ([1]; NanoBiT, 1 day): induce ternary complex formation
- Max_effect ([1]; sheet 5C): 1.5997
- pEC50 ([1]; sheet 5C, read-out: EC50): 5.67
- protein localization [2]: PLK1 nuclear enrichment and colocalization with p53-Y220C
- pIC50 (LNCaP cells; Homo sapiens, 96 h, LNCaP, 4 day treatment): 4.85
- mean_norm (normalized viability) (LNCaP cells; Concentration 5000): 0.7565
- mean_norm (normalized viability) (LNCaP cells; Concentration 10000): 0.7384
- mean_norm (normalized viability) (LNCaP cells; Concentration 20000): 0.4932
- p5301_AUC_to_10uM (LNCaP cells; LNCaP): 0.8069
- p5301_AUC_to_10uM (MCF7 cells): 0.5585
- mean_norm (normalized viability) (MCF7 cells; Concentration 39.0625, 4 day): 1.014
- mean_norm (normalized viability) (MCF7 cells; Concentration 78.125, 4 day): 0.9684
- mean_norm (normalized viability) (MCF7 cells; Concentration 156.25, 4 day): 0.9955
- mean_norm (normalized viability) (MCF7 cells; Concentration 312.5, 4 day): 1.001
- mean_norm (normalized viability) (MCF7 cells; Concentration 625, 4 day): 0.97
- pIC50 (MCF7 cells; [3]): 5.55
- p5301_AUC_to_10uM (Huh7 cells): 1
- pIC50 (Huh7 cells; Homo sapiens, Huh-7, 96 h, 4 day treatment): < 4.70
- p5301_AUC_to_10uM (MFE296 cells): 0.5186
- mean_norm (normalized viability) (MFE296 cells; Concentration 39.0625, 4 day): 1.0133
- mean_norm (normalized viability) (MFE296 cells; Concentration 78.125, 4 day): 1.079
- mean_norm (normalized viability) (MFE296 cells; Concentration 156.25, 4 day): 1.012
- mean_norm (normalized viability) (MFE296 cells; Concentration 312.5, 4 day): 1.043
- mean_norm (normalized viability) (MFE296 cells; Concentration 625, 4 day): 0.9978
- mean_norm (normalized viability) (MFE296 cells; Concentration 1250, 4 day): 0.7559
- mean_norm (normalized viability) (MFE296 cells; Concentration 2500, 4 day): 0.6581
- mean_norm (normalized viability) (MFE296 cells; Concentration 5000, 4 day): 0.4955
- mean_norm (normalized viability) (MFE296 cells; Concentration 10000, 4 day): 0.246
- pIC50 (MFE296 cells; Homo sapiens, MFE-296, 96 h, 4 day treatment): 5.36
- p5301_AUC_to_10uM (DU145 cells): 0.9088
- pIC50 (DU145 cells; Homo sapiens, DU-145, 96 h, 4 day treatment): < 4.70
- p5301_AUC_to_10uM (HepG2 cells): 0.9503
- mean_norm (normalized viability) (HepG2 cells; Concentration 39.0625, 4 day): 0.9684
- mean_norm (normalized viability) (HepG2 cells; Concentration 78.125, 4 day): 0.9673
- mean_norm (normalized viability) (HepG2 cells; Concentration 156.25, 4 day): 0.8732
- mean_norm (normalized viability) (HepG2 cells; Concentration 312.5, 4 day): 0.9657
- mean_norm (normalized viability) (HepG2 cells; Concentration 625, 4 day): 0.8895
- mean_norm (normalized viability) (HepG2 cells; Concentration 1250, 4 day): 0.9491
- mean_norm (normalized viability) (HepG2 cells; Concentration 2500, 4 day): 0.8943
- mean_norm (normalized viability) (HepG2 cells; Concentration 5000, 4 day): 1.008
- mean_norm (normalized viability) (HepG2 cells; Concentration 10000, 4 day): 0.9189
- mean_norm (normalized viability) (HepG2 cells; Concentration 20000, 4 day): 0.9567
- pIC50 (HepG2 cells; [3]): < 4.70
